{
  "source": "patent US12458622B2",
  "about": "“Methods of treatment of coronavirus-induced inflammation conditions” (priority 2020, dated 2025)",
  "key": {"APP/PS1 mice": {"system": "APP/PS1 mice", "test": "Recruitment of microglial cells around amyloid plaques", "settings": "mouse, in vivo"}, "[1]": {"system": "HMC3 human microglia cells", "test": "MSD U-PLEX chemokine secretion induced by TNF-α", "assay_type": "cell-based", "settings": "0.3 μg/mL TNF-α, 24 hours; for inhibition at 3 µM: Homo sapiens, HMC3", "experimental": "Human microglial cell line HMC3 (CRL-3304) was purchased from ATCC (American Type Culture Collection). HMC3 cell line was cultured in DMEM medium with 10% FBS, 1% L-glutamine, and 1% penicillin/streptomycin. Cells were maintained in 37° C. incubator at 5% CO2.\nHMC3 cells were resuspended, counted using the LUNA-II Automated Cell Counter, seeded in the 6-well plate (400 K cells/2 mL medium/well), and incubated overnight to allow cells to attach. The media and detached cells were removed next day. The cell layer was washed three times in PBS and once in serum- and phenolred-free DMEM (SPFM). […] The conditioned medium was collected and centrifuged at 1,000×RCF (g) for 5 min to pellet detached cells and large debris, which was subsequently passed through a 0.22 μm filter with PVDF membrane to remove smaller debris. Samples of the supernatant medium were put in a CoolRack (#07210041, Fisher Scientific) on dry ice for Snap-freezing and kept at −80° C. until use.\nMeso-scale U-PLEX plates that detect a cytokine panel including IL-1β, IL-2, IL-4, IL-6, IL-8, IL-10, IFN-γ, TNF-α, and a chemokine panel including IP-10/CXCL10, MCP-1/CCL2, MIP-1α/CCL3, MIP-1P/CCL4, Eotaxin/CCL11, were used as per manufacture's protocol. 25 μL of the conditioned medium was used in each well of the MSD plates to detect the analytes. The plates were then analyzed on an MSD QuickPlex SQ120 instrument.\nAll the data were presented as mean±standard error from at least three times, each done in triplicate. The statistical significance between two groups was determined by Student's t test, whereas the comparisons of multiple groups were carried out by one-way ANOVA, followed by Bonferroni's post-test using GraphPad Prism 7 (GraphPad Software, Inc.). A probability value of * p<0.05 was considered to be significant."}, "Rabbit": {"system": "Rabbit", "settings": "Oral; cited from earlier work"}, "Rhesus Monkeys": {"system": "Rhesus Monkeys", "settings": "cited from earlier work"}, "Stump-tailed Monkeys": {"system": "Stump-tailed Monkeys", "settings": "20 mg cromolyn and lactose capsules, 4, 16 and 72 capsules/day, 17 weeks; cited from earlier work"}, "Wistar Rats": {"system": "Wistar Rats", "settings": "4% cromolyn 0, 4, 8, 16 mg/day, 3 month; cited from earlier work"}, "Squirrel Monkeys": {"system": "Squirrel Monkeys", "settings": "6 months, cited from earlier work"}, "[2]": {"settings": "cited from earlier work"}, "TgSOD1^G93A mice": {"system": "TgSOD1^G93A mice", "test": "Meso Scale Discovery multi-spot cytokine assay in spinal cord and plasma of TgSOD1 mice", "settings": "6.3 mg/kg i.p."}, "[3]": {"settings": "TgSOD1-Cromolyn vs TgSOD1-Vehicle, p=0.0273"}},
  "note": "Read-outs that look alike come from different tables or passages of the source.",
  "data": [
    {"smiles": "O=C(O)c1cc(=O)c2c(OCC(O)COc3cccc4oc(C(=O)O)cc(=O)c34)cccc2o1", "note": "[cromolyn]", "values": [
      {"measurement": "Recruitment of microglial cells around amyloid plaques", "setting": "APP/PS1 mice", "result": "increased recruitment of microglial cells"},
      {"measurement": "extracellular IP-10 (CXCL10)", "setting": "[1]; 0.3 μM", "result": "statistically significant reduction"},
      {"measurement": "extracellular MCP-1 (CCL2)", "setting": "[1]; 0.3 μM", "result": "statistically significant reduction"},
      {"measurement": "extracellular MIP-1α (CCL3)", "setting": "[1]; 0.3 μM", "result": "statistically significant reduction"},
      {"measurement": "extracellular MIP-1β (CCL4)", "setting": "[1]; 0.3 μM", "result": "statistically significant reduction"},
      {"measurement": "inhibition at 3 µM", "setting": "[1]; read-out: inhibition of IP-10 (CXCL10)", "result": "> 40", "unit": "%"},
      {"measurement": "inhibition at 3 µM", "setting": "[1]; read-out: inhibition of MCP-1 (CCL2)", "result": "> 40", "unit": "%"},
      {"measurement": "inhibition at 3 µM", "setting": "[1]; read-out: inhibition of MIP-1α (CCL3)", "result": 35.6, "unit": "%"},
      {"measurement": "inhibition at 3 µM", "setting": "[1]; read-out: inhibition of MIP-1β (CCL4)", "result": "> 40", "unit": "%"},
      {"measurement": "LD50 Value", "setting": "Rabbit", "result": ">8", "unit": "gm/kg"},
      {"measurement": "Mortality", "setting": "Rhesus Monkeys; single IV dose of 5, 50, 500, 1000 mg/kg, 7-day observation", "result": "There were no mortalities."},
      {"measurement": "Clinical signs and weight", "setting": "Rhesus Monkeys; single IV dose, at 500 and 1000 mg/kg", "result": "Slight ataxia and weight"},
      {"measurement": "Body weight", "setting": "Stump-tailed Monkeys", "result": "Some weight loss."},
      {"measurement": "General toxicity", "setting": "Wistar Rats", "result": "No general toxic effects."},
      {"measurement": "Ill health, general toxicity, or nasal irritation", "setting": "Squirrel Monkeys; 2% cromolyn 0, 2, 6, 12 mg/day", "result": "No signs of ill health,"},
      {"measurement": "Ill health, general toxicity, or nasal irritation", "setting": "Squirrel Monkeys; 4% cromolyn 0, 5, 16, 32 mg/day", "result": "No signs of ill health,"},
      {"measurement": "Adverse effects in repeat dose studies", "setting": "[2]; all routes of administration", "result": "No adverse effects"},
      {"measurement": "Renal toxicity", "setting": "[2]; dosing of high concentration, precipitation in the renal tubules", "result": "renal damage was observed"},
      {"measurement": "IL-10 level in plasma", "setting": "TgSOD1^G93A mice; TgSOD1-Cromolyn vs TgSOD1-Vehicle, p=0.0095", "result": "significantly decreased"},
      {"measurement": "IL-2 level in plasma", "setting": "TgSOD1^G93A mice; TgSOD1-Cromolyn vs TgSOD1-Vehicle, p=0.0211", "result": "significantly decreased"},
      {"measurement": "IL-6 level in plasma", "setting": "TgSOD1^G93A mice; [3]", "result": "significantly decreased"},
      {"measurement": "TNFα level in spinal cord", "setting": "TgSOD1^G93A mice; [3]", "result": "significant decrease"},
      {"measurement": "TNFα level in plasma", "setting": "TgSOD1^G93A mice; TgSOD1-Cromolyn vs TgSOD1-Vehicle, p=0.110", "result": "trend towards a decrease"},
      {"measurement": "IL-13 level in plasma", "setting": "TgSOD1^G93A mice; between groups, FIG. 2A", "result": "no statistically significant difference"},
      {"measurement": "IL-5 level in plasma", "setting": "TgSOD1^G93A mice; between groups, FIG. 2C", "result": "no statistically significant difference"}
    ]}
  ]
}
